Measurements taken from ChEMBL document CHEMBL5104202, “Structure-Uptake Relationship Studies of Oxazolidinones in Gram-Negative ESKAPE Pathogens” (J Med Chem, 2022).

Experiments:
Assay type in all cases: functional, organism-based
Escherichia coli [1] = test: Antibacterial activity against efflux pump lacking Escherichia coli assessed as inhibition of bacterial growth
Acinetobacter baumannii [2] = test: Antibacterial activity against recombinant OM pore producing Acinetobacter baumannii assessed as inhibition of bacterial growth
Pseudomonas aeruginosa [3] = test: Antibacterial activity against wild type Pseudomonas aeruginosa assessed as inhibition of bacterial growth
Acinetobacter baumannii [4] = test: Antibacterial activity against efflux pump lacking Acinetobacter baumannii assessed as inhibition of bacterial growth
Pseudomonas aeruginosa [5] = test: Antibacterial activity against recombinant OM pore producing Pseudomonas aeruginosa assessed as inhibition of bacterial growth
Escherichia coli [6] = test: Antibacterial activity against efflux pump lacking/recombinant OM pore producing Escherichia coli assessed as inhibition of bacterial growth
Escherichia coli [7] = test: Antibacterial activity against recombinant OM pore producing Escherichia coli assessed as inhibition of bacterial growth
Pseudomonas aeruginosa [8] = test: Antibacterial activity against efflux pump lacking/recombinant OM pore producing Pseudomonas aeruginosa assessed as inhibition of bacterial growth
Acinetobacter baumannii [9] = test: Antibacterial activity against efflux pump lacking/recombinant OM pore producing Acinetobacter baumannii assessed as inhibition of bacterial growth
Acinetobacter baumannii [10] = test: Antibacterial activity against wild type Acinetobacter baumannii assessed as inhibition of bacterial growth
Pseudomonas aeruginosa [11] = test: Antibacterial activity against efflux pump lacking Pseudomonas aeruginosa assessed as inhibition of bacterial growth
Escherichia coli [12] = test: Antibacterial activity against wild type Escherichia coli assessed as inhibition of bacterial growth

Row | SMILES | IC50 (Escherichia coli [1]) | IC50 (Acinetobacter baumannii [2]) | IC50 (Pseudomonas aeruginosa [3]) | IC50 (Acinetobacter baumannii [4]) | IC50 (Pseudomonas aeruginosa [5]) | IC50 (Escherichia coli [6]) | IC50 (Escherichia coli [7]) | IC50 (Pseudomonas aeruginosa [8]) | IC50 (Acinetobacter baumannii [9]) | IC50 (Acinetobacter baumannii [10]) | IC50 (Pseudomonas aeruginosa [11]) | IC50 (Escherichia coli [12])
1 | CC(C(=O)NCC#Cc1ccc(N2C[C@H](CO)OC2=O)cc1F)N1CCN(C(=O)OC(C)(C)C)CC1 (stereo not given in full) | 50.9 µM | > 100 µM | > 100 µM | > 100 µM | > 100 µM | 62.6 µM | > 100 µM | > 100 µM | > 100 µM | > 100 µM | > 100 µM | > 100 µM
2 | O=C1O[C@@H](CO)CN1c1ccc(-c2ccc(-c3ccncc3)cc2)c(F)c1 | > 100 µM | > 100 µM | > 100 µM | > 100 µM | > 100 µM | 75.2 µM | > 100 µM | 1 µM | > 100 µM | > 100 µM | 92.1 µM | > 100 µM
3 | O=C1O[C@@H](CO)CN1c1ccc(-c2ccc(F)cc2)c(F)c1 | 4.3 µM | 89.8 µM | > 100 µM | 8.8 µM | 89.8 µM | 2.3 µM | 22.8 µM | 2.2 µM | 9.7 µM | > 100 µM | 8.8 µM | 89.1 µM
4 | O=C1O[C@@H](CO)CN1c1ccc(-c2cc[n+](Cc3ccccc3)cc2)c(F)c1 | 15.5 µM | 15.6 µM | > 100 µM | 23.4 µM | 41.7 µM | 15.6 µM | 23.3 µM | 1.1 µM | 13 µM | > 100 µM | 4.6 µM | 51.6 µM
5 | Cn1ncc(C#Cc2ccc(N3C[C@H](CO)OC3=O)cc2F)c1C(=O)O | > 100 µM | 61.3 µM | > 100 µM | 88.2 µM | > 100 µM | > 100 µM | > 100 µM | > 100 µM | 89.5 µM | > 100 µM | > 100 µM | > 100 µM
6 | COc1ccc(CN)cc1OCC#Cc1ccc(N2C[C@H](CO)OC2=O)cc1F | > 100 µM | > 100 µM | > 100 µM | > 100 µM | > 100 µM | > 100 µM | > 100 µM | > 100 µM | > 100 µM | > 100 µM | > 100 µM | > 100 µM
7 | O=C(O)c1cncc(-c2ccc(N3C[C@H](CO)OC3=O)cc2F)c1 | > 100 µM | > 100 µM | > 100 µM | > 100 µM | > 100 µM | 42.2 µM | > 100 µM | > 100 µM | > 100 µM | > 100 µM | > 100 µM | > 100 µM
8 | CC(C)(C)OC(=O)NCC#Cc1ccc(N2C[C@H](CO)OC2=O)cc1F | 83.4 µM | > 100 µM | > 100 µM | > 100 µM | > 100 µM | 64.7 µM | 74.3 µM | > 100 µM | > 100 µM | > 100 µM | > 100 µM | > 100 µM
9 | CC[n+]1ccc(-c2ccc(N3C[C@H](CO)OC3=O)cc2F)cc1 | 13.7 µM | > 100 µM | > 100 µM | > 100 µM | > 100 µM | 15.9 µM | 36 µM | 42.3 µM | 38.5 µM | > 100 µM | 57.4 µM | 43.8 µM
10 | N/C(=N/O)c1ccc(-c2ccc(N3C[C@H](CO)OC3=O)cc2F)cc1 | 0.6 µM | 2.8 µM | > 100 µM | 1.2 µM | 63.6 µM | 1 µM | 7.5 µM | 1.8 µM | 0.9 µM | 22.1 µM | 5.1 µM | 55.9 µM
11 | COC(=O)c1cncc(-c2ccc(N3C[C@H](CO)OC3=O)cc2F)c1 | 2.7 µM | 83.2 µM | > 100 µM | 12.1 µM | > 100 µM | 2.2 µM | 4.7 µM | 38.7 µM | 12.1 µM | 83.2 µM | 32.9 µM | > 100 µM
12 | CC(C)(C)OC(=O)N(CC#Cc1ccc(N2C[C@H](CO)OC2=O)cc1F)CC(=O)O | > 100 µM | > 100 µM | > 100 µM | > 100 µM | > 100 µM | > 100 µM | > 100 µM | > 100 µM | > 100 µM | > 100 µM | > 100 µM | > 100 µM
13 | CC(C)(C)OC(=O)NC(CO)CC#Cc1ccc(N2C[C@H](CO)OC2=O)cc1F (stereo not given in full) | 72.6 µM | > 100 µM | > 100 µM | > 100 µM | > 100 µM | 67.8 µM | 97.3 µM | > 100 µM | > 100 µM | > 100 µM | > 100 µM | > 100 µM
14 | O=C1O[C@@H](CO)CN1c1ccc(-c2ccc(-c3cccnc3)cc2)c(F)c1 | > 100 µM | > 100 µM | > 100 µM | > 100 µM | > 100 µM | > 100 µM | > 100 µM | > 100 µM | > 100 µM | > 100 µM | > 100 µM | > 100 µM
15 | CNC(=O)NCC#Cc1ccc(N2C[C@H](CO)OC2=O)cc1F | > 100 µM | > 100 µM | > 100 µM | > 100 µM | > 100 µM | 11.2 µM | > 100 µM | > 100 µM | > 100 µM | > 100 µM | > 100 µM | > 100 µM
16 | NC(=S)Nc1cccc(C#Cc2ccc(N3C[C@H](CO)OC3=O)cc2F)c1 | 85 µM | > 100 µM | > 100 µM | > 100 µM | > 100 µM | 64.5 µM | > 100 µM | > 100 µM | > 100 µM | > 100 µM | > 100 µM | > 100 µM
17 | O=C1O[C@@H](CO)CN1c1ccc(-c2ccnc(N3CCCC3)c2)c(F)c1 | 15.4 µM | 71.9 µM | > 100 µM | 72.4 µM | > 100 µM | 1.5 µM | 4 µM | > 100 µM | 72.4 µM | 71.9 µM | > 100 µM | > 100 µM
18 | O=C1O[C@@H](CO)CN1c1ccc(-c2ccccc2OC(F)(F)F)c(F)c1 | 9.3 µM | 59.1 µM | > 100 µM | 33.2 µM | > 100 µM | 21.9 µM | 46.3 µM | 29.9 µM | 24.8 µM | > 100 µM | 75.6 µM | 42.6 µM
19 | CCOC(=O)C(C)(C)CC#Cc1ccc(N2C[C@H](CO)OC2=O)cc1F | 17.8 µM | 60.3 µM | > 100 µM | 44 µM | > 100 µM | 21.9 µM | 65.3 µM | 30.1 µM | 30.3 µM | > 100 µM | > 100 µM | > 100 µM
20 | N[C@@H](Cc1cccc(-c2ccc(N3C[C@H](CO)OC3=O)cc2F)c1)C(=O)O | > 100 µM | > 100 µM | > 100 µM | > 100 µM | > 100 µM | > 100 µM | > 100 µM | > 100 µM | > 100 µM | > 100 µM | > 100 µM | > 100 µM
